Drawing on ChEMBL document CHEMBL1128148, “Molecular design of novel PGI2 agonists without PG skeleton. III” (Bioorg Med Chem Lett, 1995), this text covers IC50 and inhibition for eight compounds.

For one experiment, the species on record is Homo sapiens. In words: Compound was tested for the inhibition of 4 uM ADP-induced platelet aggregation by using human platelet rich plasma. The class given is functional.
Experiment [1] has as its target T1, Prostacyclin receptor (Homo sapiens, UniProt P43119). Briefly: Compound was tested for prostacyclin (PGI-2) binding by displacement of [3H]iloprost from human platelets using conventional ligand binding assay.
Experiment [2] has as its target T1, Prostacyclin receptor. In words: Compound was tested for prostacyclin (PGI-2) binding by displacement of [3H]iloprost from human platelets. The settings on record: concentration not given here.

T1 sequence (P43119 whole entry): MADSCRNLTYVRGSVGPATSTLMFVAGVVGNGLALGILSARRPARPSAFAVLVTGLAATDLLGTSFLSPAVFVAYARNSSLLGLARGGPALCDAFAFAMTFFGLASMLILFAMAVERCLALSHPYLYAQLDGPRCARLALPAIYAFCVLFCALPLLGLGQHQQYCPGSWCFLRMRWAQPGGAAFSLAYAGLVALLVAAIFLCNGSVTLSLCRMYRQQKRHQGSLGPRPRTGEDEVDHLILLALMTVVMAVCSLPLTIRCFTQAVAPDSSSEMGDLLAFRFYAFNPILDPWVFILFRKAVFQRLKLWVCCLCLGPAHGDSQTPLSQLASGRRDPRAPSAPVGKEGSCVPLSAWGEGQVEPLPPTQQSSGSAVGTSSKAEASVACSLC

For `O=C(O)COc1cccc2c1CCCC2CCON=C(c1ccccc1)c1ccccc1` (stereo unspecified), the figures for the IC50 in the experiment filed under Homo sapiens and at Prostacyclin receptor [1] were 250 nM and 210 nM, respectively.

`O=C(O)COc1cccc2c1CCC(CON=C(c1ccccc1)c1ccccc1)C2` (stereo unspecified): the IC50 in the experiment filed under Homo sapiens and on Prostacyclin receptor [1] was 2400 nM each time.

As to `O=C(O)COc1cccc2c1CCC(CC(=O)NN(c1ccccc1)c1ccccc1)C2` (stereo unspecified), the IC50 in the experiment filed under Homo sapiens came to 150 nM.

Regarding `O=C(O)COc1cccc2c1CCC(CCCOC(c1ccccc1)c1ccccc1)C2` (stereo unspecified), the IC50 in the experiment listed under Homo sapiens is over 20000 nM; at Prostacyclin receptor [1], over 10000 nM. The inhibition at Prostacyclin receptor [2] worked out at 25%.

On to `O=C(O)COc1cccc2c1CCCC2CCCOC(c1ccccc1)c1ccccc1` (stereo unspecified), for which the half-maximal inhibitory concentration (IC50) was 450 nM in the experiment filed under Homo sapiens and 460 nM on Prostacyclin receptor [1].

With `O=C(O)COc1cccc2c1CCCC2CCC(=O)NN(c1ccccc1)c1ccccc1` (stereo unspecified), the IC50 in the experiment listed under Homo sapiens was 57 nM; at Prostacyclin receptor [1], 10 nM.

As to `O=C(O)COc1cccc2c1CCCC2CCCCOC(c1ccccc1)c1ccccc1` (stereo unspecified), the 50% inhibitory concentration (IC50) in the experiment filed under Homo sapiens stood at 11000 nM; on Prostacyclin receptor [1], 4200 nM.

Take `O=C(O)COc1cccc2c1CCC(CCOC(c1ccccc1)c1ccccc1)C2` (stereo unspecified): the IC50 in the experiment listed under Homo sapiens was over 20000 nM; on Prostacyclin receptor [1] it was 8000 nM.

The IC50 is the point on the concentration scale where inhibition reaches its midpoint. As a reminder, the inhibition is the drop in the measured response relative to a control, in per cent. High values mean strong suppression, low ones little suppression.
